Structures can show the parent of a compound that is named as a salt. Where two headings read alike, the source gives them in different places.
Target: human LOXL2 (Homo sapiens (Human), UniProt Q9Y4K0)
Assay: Human LOXL2 Amine Oxidase Activity Assay (Amplex Red fluorescence)
Assay type: biochemical
Conditions: 2 h at 37° C. preincubation, DAP substrate
Method: LOXL2 amine oxidase activity is evaluated by measuring Amplex Red fluorescence using 10-20× concentrated conditioned media from CHO cells stably expressing human LOXL2. To assay for amine oxidase activity, 10 μL of the concentrated conditioned media is incubated with 2 μL of test compound in DMSO and 73 μL Assay Buffer (50 mM Borate Buffer, pH8) for 2 h at 37° C. After the 2 h incubation, 5 μl of 10 mM 1,5-Diaminopentane (DAP) diluted in Assay Buffer and 10 μl of Amplex Red Mix (8.5 μl Assay Buffer+0.5 μl of 10 mM Amplex Red+1 μl of 500 U/ml Horseradish Peroxidase) are added and the plate mixed and immediately placed on the FlexStaion for fluorescence measurements. Fluorescence is read in kinetic mode every 2 min for 1 hour at excitation=544 and emission=590. The amine oxidase activity is calculated from the slope of the linear portion of the curve.

[1] = concentrated conditioned media from CHO cells stably expressing human LOXL2, read-out: IC50

Chain of human LOXL2 (Q9Y4K0 26-774): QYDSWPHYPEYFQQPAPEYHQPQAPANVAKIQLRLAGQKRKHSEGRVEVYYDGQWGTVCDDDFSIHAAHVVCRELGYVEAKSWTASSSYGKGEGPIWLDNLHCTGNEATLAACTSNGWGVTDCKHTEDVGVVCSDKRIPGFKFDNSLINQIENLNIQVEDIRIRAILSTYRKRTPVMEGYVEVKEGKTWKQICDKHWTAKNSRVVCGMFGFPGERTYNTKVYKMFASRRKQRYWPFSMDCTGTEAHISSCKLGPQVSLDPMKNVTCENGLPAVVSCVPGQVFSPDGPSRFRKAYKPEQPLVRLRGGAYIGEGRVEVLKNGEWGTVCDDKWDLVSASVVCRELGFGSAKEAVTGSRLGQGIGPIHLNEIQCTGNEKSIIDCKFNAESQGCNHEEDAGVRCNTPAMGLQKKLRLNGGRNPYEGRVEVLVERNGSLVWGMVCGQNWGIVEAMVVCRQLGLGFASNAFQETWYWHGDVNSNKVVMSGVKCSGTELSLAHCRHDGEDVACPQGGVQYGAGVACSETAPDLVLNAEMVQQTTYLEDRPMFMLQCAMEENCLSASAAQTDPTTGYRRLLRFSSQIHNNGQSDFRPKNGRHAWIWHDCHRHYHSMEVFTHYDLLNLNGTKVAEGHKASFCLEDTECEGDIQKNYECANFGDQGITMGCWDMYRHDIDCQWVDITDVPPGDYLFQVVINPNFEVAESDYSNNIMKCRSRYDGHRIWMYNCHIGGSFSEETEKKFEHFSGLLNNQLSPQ

| Compound | IC50 [1] [nM] | IC50 (IC50, concentrated conditioned media from CHO cells stably expressing human LOXL2) [nM] |
| --- | --- | --- |
| CN(C)C(=O)Cn1ccc2c(Oc3cc(CN)ccn3)cccc21 [Compound 2-26, 2-(4-((4-(Aminomethyl)pyridin-2-yl)oxy)-1H-indol-1-yl)-N,N-dimethylacetamide hydrochloride] | < 300 |  |
| NCc1ccnc(Oc2cccc3c2ccn3CC(=O)N2CCCCC2)c1 [Compound 2-27, 2-(4-((4-(Aminomethyl)pyridin-2-yl)oxy)-1H-indol-1-yl)-1-(piperidin-1-yl)ethanone hydrochloride] | < 300 |  |
| CN(C(=O)Cn1ccc2c(Oc3cc(CN)ccn3)cccc21)c1ccccc1 [Compound 2-30, 2-(4-((4-(Aminomethyl)pyridin-2-yl)oxy)-1H-indol-1-yl)-N-methyl-N-phenylacetamide hydrochloride] | < 300 |  |
| NCc1ccnc(Oc2cccc3c2ccn3CC(=O)N2CCCc3ccccc32)c1 [Compound 2-31, 2-(4-((4-(Aminomethyl)pyridin-2-yl)oxy)-1H-indol-1-yl)-1-(3,4-dihydroquinolin-1(2H)-yl)ethanone hydrochloride] | < 300 |  |
| NCc1ccnc(Oc2cccc3[nH]ccc23)c1 [Compound 2-32, (2-((1H-Indol-4-yl)oxy)pyridin-4-yl)methanamine trifluoroacetate] | < 300 |  |
| NCc1ccnc(Oc2cccc3c2CCN3c2nc3ccc(F)cc3s2)c1 [Compound 2-33, (2-((1-(6-Fluorobenzo[d]thiazol-2-yl)indolin-4-yl)oxy)pyridin-4-yl)methanamine hydrochloride] | < 300 |  |
| Cc1nn(Cc2ccc(F)cc2F)c2cccc(Oc3cc(CN)ccn3)c12 [Compound 2-35, (2-((1-(2,4-Difluorobenzyl)-3-methyl-1H-indazol-4-yl)oxy)pyridin-4-yl)methanamine trifluoroacetate] | < 300 |  |
| NCc1ccnc(Oc2cccc3c2CCC(=O)N3Cc2ccc(F)cc2F)c1 [Compound 2-36, 5-((4-(Aminomethyl)pyridin-2-yl)oxy)-1-(2,4-difluorobenzyl)-3,4-dihydroquinolin-2(1H)-one hydrochloride] | < 300 |  |
| COc1ccc(CN2C(=O)CCc3c(Oc4cc(CN)ccn4)cccc32)cn1 [Compound 2-37, 5-((4-(Aminomethyl)pyridin-2-yl)oxy)-1-((6-methoxypyridin-3-yl)methyl)-3,4-dihydroquinolin-2(1H)-one acetate] | < 300 |  |
| NCc1ccnc(O[C@H]2CCCN(C(=O)c3ccccc3)C2)c1 [Compound 2-38, (S)-(3-((4-(Aminomethyl)pyridin-2-yl)oxy)piperidin-1-yl)(phenyl)methanone trifluoroacetate] | < 300 |  |
| NCc1ccnc(O[C@H]2CCCN(C(=O)Nc3ccccc3)C2)c1 [Compound 2-39, (A)-3-((4-(Aminomethyl)pyridin-2-yl)oxy)-N-phenylpiperidine-1-carboxamide trifluoroacetate] | < 300 |  |
| Cc1ccc(C(=O)Nc2cc(CN)ccn2)c(F)c1 [Compound 2-42, N-(4-(Aminomethyl)pyridin-2-yl)-2-fluoro-4-methylbenzamide trifluoroacetate] | 300 to 1000 |  |
| NCc1ccnc(NC(=O)Cc2ccc(Cl)c(Cl)c2)c1 [Compound 2-43, N-(4-(Aminomethyl)pyridin-2-yl)-2-(3,4-dichlorophenyl)acetamide trifluoroacetate] | 300 to 1000 |  |
| CN(C)c1cc(CN)cc(Oc2cccc(Oc3ccccc3)c2)n1 [Compound 3-1, 4-(Aminomethyl)-N,N-dimethyl-6-(3-phenoxyphenoxy)pyridin-2-amine hydrochloride] | > 1000 |  |
| COCCNc1cc(CN)cc(Oc2cccc(Oc3ccccc3)c2)n1 [Compound 3-2, 4-(Aminomethyl)-N-(2-methoxyethyl)-6-(3-phenoxyphenoxy)pyridin-2-amine trifluoroacetate] | 300 to 1000 |  |
| NCc1cc(Oc2cccc(Oc3ccccc3)c2)nc(-c2ccc(F)cc2)c1 [Compound 3-3, (2-(4-Fluorophenyl)-6-(3-phenoxyphenoxy)pyridin-4-yl)methanamine trifluoroacetate] | 300 to 1000 |  |
| NCc1cccnc1F [Compound 4-1, 2-Fluoro-3-(aminomethyl)pyridine] | > 1000 |  |
| NCc1ccncc1F [Compound 4-2, 3-Fluoro-4-(aminomethyl)pyridine] | 300 to 1000 |  |
| NCc1ccnc(F)c1 [Compound 4-3, 2-Fluoro-4-(aminomethyl)pyridine] | 300 to 1000 |  |
| NCc1ccnc(Cl)c1 [Compound 4-5, 2-Chloro-4-(aminomethyl)pyridine] | < 300 |  |
| NCc1ccnc(OCc2ccccc2)c1 [Compound 4-6, 2-Benzyloxy-4-(aminomethyl)pyridine] | > 1000 |  |
| NCc1ccnc(OC2CCCCC2)c1 [Compound 4-7, 2-Cyclohexyloxy-4-(aminomethyl)pyridine] | < 300 |  |
| NCc1ccnc(Oc2ccc(F)cc2)c1 [Compound 4-8, 2-(4-Fluorophenoxy)-4-(aminomethyl)pyridine] | < 300 |  |
| NCc1ccnc(Oc2ccccc2C(F)(F)F)c1 [Compound 4-9, 2-(2-Trifluoromethylphenoxy)-4-(aminomethyl)pyridine] | < 300 |  |
| NCc1ccnc(N2CCCC2)c1 [Compound 4-10, 2-(1-Pyrrolidino)-4-(aminomethyl)pyridine] | > 1000 |  |
| NCc1ccnc(-n2ccnc2)c1 [Compound 4-11, 2-(Imidazol-1-yl)-4-(aminomethyl)pyridine] | < 300 |  |
| CCN1CCN(c2cc(CN)ccn2)CC1 [Compound 4-12, 2-(4-Ethylpiperazin-1-yl)-4-(aminomethyl)pyridine] | > 1000 |  |
| COCCNC(=O)c1cc(CN)ccn1 [Compound 4-13, 4-(Aminomethyl)-N-(2-methoxyethyl)picolinamide hydrochloride] | < 300 |  |
| NCc1ccnc(NC(=O)CC(F)(F)F)c1 [Compound 4-14, trifluoroacetate] |  | 300 to 1000 |
